Data as given in US6974816B2, “Combination for the treatment of endothelial damage” (Licentia Ltd., priority 2001, dated 2005).
Like-named read-outs stand apart in the source and are kept apart here.

Columns and labels:
[1] = tested on: left anterior descending coronary artery injured by overdilatation and denudation; details: after PTCA, versus controls without RPR101511A; cited from earlier work
[2] = tested on: CD31-positive cells (endothelium) of the transfected vessel segment; experiment: Luminal endothelial cell coverage (CD31-positive cells) in transverse vessel sections; format: in vivo, New Zealand White rabbits
Protocol: Animals from the 8 groups are also analyzed with regard to luminal endothelial cell coverage from transverse vessel sections. This variable is determined by analysis of the percentage of the luminal surface that is covered by CD31-positive cells (CD31 is an endothelium-specific antibody from DAKO).
To investigate the mechanism underlying the observed beneficial effect of the combination therapy, the extent of endothelialization and the number of smooth muscle cells at the transfected vessel segment are analyzed (see Table 1). At the three-week time point, no difference in endothelial cell coverage is observed between the groups, although a trend towards an increased endothelial cell coverage in the combination group is seen (P=0.088). However, at the six-week time point, both groups that have received VEGF-C gene transfer display an increase in endotheilialization as compared to the control group. […] As shown in Table 4 (see below), the cell number is reduced by 52% (P<0.05) in the combination group as compared to control animal.
Three hours before euthanasia, animals receive an i.v. injection of 50 mg 5-bromo-2′-deoxyuridine (BrdU; Zymed Laboratories, San Francisco, Calif., USA) dissolved in 40% ethanol. After euthanasia, the transferred vessel segment is removed, flushed gently with saline, and divided into 4 parts of equal length. […]

[3] = for Plasma STI571 concentration, day 3 peak: 10 mg/kg/d oral in two daily doses; for Plasma STI571 concentration, day 3 peak / Plasma STI571 concentration, day 10 peak / Plasma STI571 concentration, day 21 peak: 2 h after drug delivery; for Plasma STI571 concentration, day 42: 3 weeks after last dose; for Plasma STI571 concentration, day 3 nadir / Plasma STI571 concentration, day 10 nadir / Plasma STI571 concentration, day 21 nadir: immediately before next administration
Protocol: The drug, or control (=sterile water) is administered with an oro-gastric sond on trained, unsedated animals 1 h before the gene transfer and is repeated every 12 h thereafter for the following three weeks.
Blood sampling, […] with catheterizations or euthanasia, is performed under slight Fluanisone/Fentanyl sedation. […] The specimen is stored in heparinized tubes shielded from light and plasma is isolated by centrifugation within 2 h and stored at −70° C. STI concentration is determined by high-performance liquid chromatography
For HPLC, plasma proteins are precipitated by the addition of an equal volume of acetonitrile. After 20 to 30 min at room temperature, the precipitated proteins are removed by centrifugation (10,000 g, 5 min) and the supernatants are analyzed by reversed-phase HPLC.
HPLC is performed on Merck-Hitachi LaChrom® equipment. 100 μl of the supernatants are injected onto a Nucleosil® 100-5 C18 column (C-18 modified silica Gel, Macherey & Nagel) protected by a 20 mm guard column of the same material. The sample is eluted with a gradient of acetonitrile in water at a flow rate of 1 ml/min; after 5 min at 10% v/v acetonitrile, the concentration of acetonitrile is increased to 75% v/v over a period of 15 min. The column is prepared for the next sample by washing for 5 min with 75% v/v acetonitrile, returning to 10% acetonitrile over 5 min and 5 min reequilibration. The mobile phase contains 0.05% v/v trifluoroacetic acid. The eluent is monitored using UV absorbance at a wavelength of 265 nm. […] The concentration of the compound is determined by the external standard method using peak heights. […] The calibration standards are processed as above.

[4] = tested on: intimal and medial smooth muscle cells; experiment: BrdU labelling of dividing smooth muscle cells; format: in vivo, New Zealand White rabbits; details: 6-week endpoint; mean ± SEM
Protocol: (§1) Three hours before euthanasia, animals receive an i.v. injection of 50 mg 5-bromo-2′-deoxyuridine (BrdU; Zymed Laboratories, San Francisco, Calif., USA) dissolved in 40% ethanol. After euthanasia, the transferred vessel segment is removed, flushed gently with saline, and divided into 4 parts of equal length. The proximal part is snap-frozen in liquid nitrogen and stored at −70° C. The next part is immersion-fixed in 4% paraformaldehyde/15% sucrose (pH 7.4) for 4 h, rinsed in 15% sucrose (pH 7.4) and embedded in paraffin. The 2nd most distal part is fixed in 70% ethanol overnight and embedded in paraffin. The distal part is fixed in […]/PBS (pH 7.4) for 10 minutes, rinsed in PBS, embedded in OCT compound (Miles) and stored at −70° C. The distal segments from 3 week end-point animals are stained for β-galactosidase activity in X-Gal staining solution at +37° C. for 16 h, followed by fixation similar to that for the second segment. Paraffin sections are used for the detection of endothelium (CD31, DAKO, 1:50), smooth muscle cells (HHF, DAKO, 1:50), macrophages (RAM-11, DAKO, 1:50), and BrdU positive cells (Bu20a, DAKO, 1:50). Controls for immunostainings include incubations with class- and species-matched immunoglobulins and omission of primary antibodies. Morphometry is performed with Leica Q5001lW software with a stereomicroscope connected to a digital camera (Leica).

[5] = tested on: intimal and medial smooth muscle cells; experiment: Intimal and medial smooth muscle cell number; format: in vivo, New Zealand White rabbits; details: 6-week endpoint; mean ± SEM
Protocol: as §1

[6] = rabbit, in vivo
Description: (§2) The cohort groups are also characterized with regard to animal weights, weight changes, extent of balloon injury (IEL damage), blood lipid profiles and basic hematologic parameters.

[7] = rabbit, in vivo; remark: listed apart in the source
Description: as §2
(§3) Blood samples are drawn for complete blood count at the time of euthanasia from randomly selected animals (n=3/group) in the 3-week endpoint cohort.

arterial intima = details: after re-injury of the arterial intima; cited from earlier work
[8] = Complete blood count (hematological parameters); details: 3-week endpoint; mean ± SEM
Description: as §2, §3

For COc1cc2ncc(-c3ccsc3)nc2cc1OC.Cl [RPR101511A, 6,7-di-methoxy-2-thiophen-3-yl-quinoxaline hydrochloride], the total intima/media ratio [1] is listed as “significant decrease”.
With Cc1ccc(NC(=O)c2ccc(CN3CCN(C)CC3)cc2)cc1Nc1nccc(-c2cccnc2)n1 [STI571, N-{5-[4-(4-methyl-piperazino-methyl)-benzoylamido]-2-methylphenyl}-4-(3-pyridyl)-2-pyrimidine-amine] the “CD31 positive cell coverage (% of luminal circumference), mean” value ([2]; 3-week endpoint) was 33.7 % of luminal circumference, the “CD31 positive cell coverage (% of luminal circumference), mean” value ([2]; 6-week endpoint) was 60.2 % of luminal circumference and the “Plasma STI571 concentration, day 3 peak” value ([3]; LacZ transfected animals) was 10.27 ± 1.28 µM. The “Plasma STI571 concentration, day 42” value ([3]; LacZ transfected animals) was 0.04 ± 0.01 µM, the “Plasma STI571 concentration, day 10 peak” value ([3]; LacZ transfected animals) was 16.63 ± 1.99 µM and the “Plasma STI571 concentration, day 21 peak” value ([3]; LacZ transfected animals) was 13.18 ± 1.65 µM. For the same molecule, the “Plasma STI571 concentration, day 3 nadir” value ([3]; LacZ transfected animals) was 3.57 ± 0.74 µM, the “Plasma STI571 concentration, day 10 nadir” value ([3]; LacZ transfected animals) was 5.16 ± 1.89 µM and the “Plasma STI571 concentration, day 21 nadir” value ([3]; LacZ transfected animals) was 3.86 ± 1.02 µM. The “Plasma STI571 concentration, day 3 peak” value ([3]; VEGF-C transfected animals) was 11.08 ± 1.10 µM, the “Plasma STI571 concentration, day 42” value ([3]; VEGF-C transfected animals) was 0.05 ± 0.01 µM and the “Plasma STI571 concentration, day 10 peak” value ([3]; VEGF-C transfected animals) was 14.26 ± 1.26 µM. For the same molecule, the “Plasma STI571 concentration, day 21 peak” value ([3]; VEGF-C transfected animals) was 13.58 ± 1.95 µM, the “Plasma STI571 concentration, day 3 nadir” value ([3]; VEGF-C transfected animals) was 3.11 ± 1.13 µM and the “Plasma STI571 concentration, day 10 nadir” value ([3]; VEGF-C transfected animals) was 2.41 ± 0.43 µM. The “Plasma STI571 concentration, day 21 nadir” value ([3]; VEGF-C transfected animals) was 2.95 ± 0.90 µM, the “BrdU positive SMC (%), intima” value [4] was 0.57 ± 0.13% and the “BrdU positive SMC (%), media” value [4] was 0.39 ± 0.08%. The “Number of SMC, intima” value [5] was 1471 ± 287, the “Number of SMC, media” value [5] was 2403 ± 381 and the “weight” value [6] was 2462 ± 90 g. The “Bands (%)” value [7] was 0 ± 0%, the “Hct (%)” value [7] was 31 ± 1.2% and the “MCH” value [7] was 21 ± 0.8 pg. The “MCV” value [7] was 64 ± 2.0 fL, the “basophiles (%)” value [7] was 0 ± 0% and the “eosinophiles (%)” value [7] was 3.4 ± 1.4%. The “lymphocytes (%)” value [7] was 67.4 ± 4.1%, the “monocytes (%)” value [7] was 2.4 ± 0.7% and the “neutrophils (%)” value [7] was 26.8 ± 2.7%. The “smooth muscle proliferation and lesion formation” value (arterial intima) was “inhibit smooth muscle proliferation and leasion formation”, the “Hb” value [8] was 103 ± 3.6 g/L and the “RBC count (× 10^12/l)” value [8] was 4.9 ± 0.2 × 10^12/l. For the same molecule, the “WBC count (× 10^9/l)” value [8] was 4.6 ± 0.6 × 10^9/l.
